Measured values from ChEMBL document CHEMBL4419169, “Novel Ferroportin Inhibitors” (2018).

Columns and labels:
Assay type in all cases: cell-based
Ferroportin [1] = target: T1, Ferroportin (Homo sapiens, UniProt Q9NP59); assay: Inhibition of GFP-tagged human ferroportin expressed in HEK293 #354 cells assessed as reduction in Fpn-mediated iron efflux incubated overnight by iron regulatory element -driven beta-lactamase reporter gene assay
T1 sequence (Q9NP59 whole entry): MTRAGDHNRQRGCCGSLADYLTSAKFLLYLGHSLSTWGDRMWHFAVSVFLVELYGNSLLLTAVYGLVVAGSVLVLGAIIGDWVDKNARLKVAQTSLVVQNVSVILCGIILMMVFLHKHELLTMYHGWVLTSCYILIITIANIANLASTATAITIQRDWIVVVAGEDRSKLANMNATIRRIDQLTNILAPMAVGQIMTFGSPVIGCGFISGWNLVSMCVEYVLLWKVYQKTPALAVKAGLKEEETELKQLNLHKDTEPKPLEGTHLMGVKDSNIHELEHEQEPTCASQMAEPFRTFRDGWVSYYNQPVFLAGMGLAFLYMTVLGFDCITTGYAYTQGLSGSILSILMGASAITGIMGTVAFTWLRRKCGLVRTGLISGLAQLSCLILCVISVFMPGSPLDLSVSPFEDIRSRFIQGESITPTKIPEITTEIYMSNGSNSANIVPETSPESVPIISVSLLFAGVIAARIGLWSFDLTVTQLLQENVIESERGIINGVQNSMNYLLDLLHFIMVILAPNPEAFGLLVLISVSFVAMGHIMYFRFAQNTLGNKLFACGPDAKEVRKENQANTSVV

Ferroportin [2] = target: T2, Ferroportin (Mus musculus, UniProt Q9JHI9); assay: Inhibition of ferroportin in mouse J774 cells assessed as reduction in binding of hepcidin to ferroportin pre-incubated for 15 mins before TMR-hepcidin addition and further incubated for 2 hrs by fluorescence based hepcidin internalization assay
T2 sequence (Q9JHI9 whole entry): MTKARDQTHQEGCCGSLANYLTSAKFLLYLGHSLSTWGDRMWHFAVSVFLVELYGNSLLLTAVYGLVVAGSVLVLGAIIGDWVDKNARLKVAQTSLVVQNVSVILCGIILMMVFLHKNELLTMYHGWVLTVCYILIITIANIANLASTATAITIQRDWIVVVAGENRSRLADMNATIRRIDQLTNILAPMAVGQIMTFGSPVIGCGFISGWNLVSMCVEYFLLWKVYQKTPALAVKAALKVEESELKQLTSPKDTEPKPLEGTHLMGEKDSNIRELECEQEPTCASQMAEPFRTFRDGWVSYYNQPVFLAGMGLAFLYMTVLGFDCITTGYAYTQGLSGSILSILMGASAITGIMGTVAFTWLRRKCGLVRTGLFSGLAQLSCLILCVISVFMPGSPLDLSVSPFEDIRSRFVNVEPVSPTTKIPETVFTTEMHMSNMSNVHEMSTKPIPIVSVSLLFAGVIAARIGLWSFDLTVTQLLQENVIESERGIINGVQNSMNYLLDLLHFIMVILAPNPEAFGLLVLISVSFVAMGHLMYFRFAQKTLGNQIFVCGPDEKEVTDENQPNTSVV

Ferroportin [3] = target: T1, Ferroportin; assay: Inhibition of GFP-tagged human ferroportin expressed in HEK293 #354 cells assessed as induction of ferroportin internalization and degradation incubated overnight by FACS assay; details: read-out: EC50 (the source's name)

`O=C(NCc1ncccc1F)c1cn(CCNCCc2nc3ccccc3[nH]2)nn1` showed an EC50 (Ferroportin [1]) of 0.17 µM, an IC50 (Ferroportin [2]) of 0.011 µM and a DC50 (Ferroportin [3]) of 0.069 µM.
